Experimental data reported in article PMC9916969 (International Journal of Molecular Sciences, 2023).
Like-named read-outs stand apart in the source and are kept apart here.

Columns and labels:
eqBChE = biological target: T1, eqBChE (Equus caballus, UniProt P81908); assay: Kinetic study of BChE inhibition (Lineweaver-Burk); format: biochemical; settings: for αKi (non-competitive inhibition constant), eqBChE: mixed-type inhibition, mean ± SEM; for Ki: read-out: Ki (competitive inhibition constant), eqBChE
T1 construct: human erythrocyte AChE, equine serum BChE, and porcine liver CES were used; purchased Sigma-Aldrich; host or cells: equine serum (tissue-derived)
Protocol: Similar results were obtained for other tested compounds (Figures S61 and S62). The obtained values of inhibition constants (Ki = competitive component and αKi = non-competitive component) are shown in Table 2.
(§1) We assessed the mechanisms of AChE and BChE inhibition by performing a thorough analysis of enzyme kinetics. After a 5 min incubation at 25 °C (for temperature equilibration) with three increasing concentrations of inhibitor and six decreasing substrate concentrations, the residual enzyme activity was measured as described above for enzymatic assays.

human erythrocyte AChE = biological target: T2, human erythrocyte AChE (Homo sapiens, UniProt P22303); assay: biochemical; settings: mean ± SEM, n = 3, read-out: Inhibitory activity against AChE, IC50
T2 construct: human erythrocyte AChE, equine serum BChE, and porcine liver CES were used; purchased Sigma-Aldrich; host or cells: human erythrocytes (tissue-derived)
Summary of the method: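 Esterase sources were human erythrocyte AChE, equine serum BChE and porcine liver CES, with 4-NPA as CES substrate. Chromophore absorbance read on a plate reader. Compounds screened first at a single 20 µM concentration.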

in vitro = format: cell-based; settings: mouse
Protocol: […]. Accordingly, in the present work, we paid special attention to the study of the cytotoxic activity of compounds on primary cultures of mouse hepatocytes using standard MTT methodology.
The cytotoxicity of the compounds was evaluated using a primary culture of mouse hepatocytes isolated at the Center for Biotechnology and Bioengineering, Ural Federal University, Ekaterinburg, Russia, according to the standard method. Cells were seeded in 96-well plates in the inoculum dose of 1 × 10^4 cells/mL and cultured for 24 h in Dulbecco’s Modified Eagle Medium (DMEM), with 1% (w/v) glutamine in the presence of 10% (v/v) fetal bovine serum and gentamicin (50 mg/L) at 37 °C, with a humidified atmosphere of 5% (v/v) CO2. Cell viability was assessed using the standard MTT assay. The compounds were dissolved in DMSO and then in a nutrient medium, after which they were added to the wells with cells at final concentrations of 10^−7, 10^−6, 10^−5, and 10^−4 M. Hepatocytes were exposed to test compounds for 24 h at 37 °C, 95% relative humidity and 5% (v/v) CO2 atmosphere. After incubation, the medium was replaced with 100 μL of fresh medium containing MTT (0.5 mg/mL). The plates were then incubated at 37°C in a CO2 incubator for 2 h. Then the medium with MTT was removed and DMSO was added to dissolve the formazan crystals.
The results of the MTT assay were evaluated on a Tecan Infinite M200 PRO (Tecan Austria GmbH, Grödig, Austria) plate spectrophotometer at 570 nm by comparing the optical density of a formazan solution in the assay and control wells. The cell viability was expressed as the percentage of untreated control. The results were obtained from three independent experiments performed in six replicates. The IC50 (μM) values were calculated by the AAT Bioquest-calculator: (https://www.aatbio.com/tools/ic50-calculator, accessed on 1 December 2022) and expressed as a mean ± standard error of the mean (SEM). Statistical analysis was carried out using Microsoft Excel 2007 (Microsoft Corporation, Redmond, WA, USA) and Statistica 2009 (Tulsa, OK, USA) programs.

AChE = biological target: T3, AChE (Homo sapiens, UniProt P22303); assay: Kinetic study of AChE inhibition (Lineweaver-Burk); format: biochemical; settings: for αKi (non-competitive inhibition constant), AChE: mixed-type inhibition, mean ± SEM; for Ki: read-out: Ki (competitive inhibition constant), AChE
T3 construct: human erythrocyte AChE, equine serum BChE, and porcine liver CES were used; purchased Sigma-Aldrich; host or cells: human erythrocytes (tissue-derived)
Protocol: as §1

FRAP assay = settings: Trolox equivalents; 60 min, 37 °C; n.a. = not active
Protocol: The Ferric Reducing Antioxidant Power (FRAP) test involves reduction of the ferric 2,4,6-tripyridyl-s-triazine complex [Fe(TPTZ)2]^3+ to an intense-blue ferrous complex [Fe(TPTZ)2]^2+ [92], as previously reported. Results are given as Trolox Equivalents (TE).
The FRAP (ferric reducing antioxidant power) assay proposed by Benzie and Strain [92] was modified to be performed in 96-well microplates as described in detail in [53]. The FRAP reagent contained 2.5 mL of 10 mM TPTZ (2,4,6-tris(2-pyridyl)-s-triazine, Sigma-Aldrich) solution in 40 mM HCl, 2.5 mL of 20 mM FeCl3 (Sigma-Aldrich) in distilled water and 25 mL of 0.3 M acetate buffer (pH 3.6). Aliquots of 10 µL of the test compound dissolved in DMSO (0.5 mM) were placed in quadruplicate. Absorbance was measured at a wavelength of 593 nm after 60 min incubation at 37 °C. In each case, Trolox was used as a reference compound to obtain the standard curve. The AO activity was calculated with respect to the activity of Trolox and expressed as Trolox equivalents (TE)—the values calculated as the ratio of the concentrations of Trolox and the test compound resulting in the same effect on ferric reducing activity.

[1] = Metal chelation by UV-Vis spectroscopy, Zn2+; settings: ethanol, 25 °C; compound and metal 40 μM; difference spectra; two bands per compound
[2] = Metal chelation by UV-Vis spectroscopy, Cu2+; settings: ethanol, 25 °C; compound and metal 40 μM; difference spectra; two bands per compound
[3] = ethanol, difference spectra, two bands, cited from earlier work
[4] = ethanol, difference spectra, two bands, cited from earlier work; remark: listed apart in the source
[5] = ethanol, difference spectra, two bands, cited from earlier work; remark: listed apart in the source
[6] = absorption band at 337, 323, 308 nm

T3 sequence (P22303 32-617 isoform P22303-2 limits assumed): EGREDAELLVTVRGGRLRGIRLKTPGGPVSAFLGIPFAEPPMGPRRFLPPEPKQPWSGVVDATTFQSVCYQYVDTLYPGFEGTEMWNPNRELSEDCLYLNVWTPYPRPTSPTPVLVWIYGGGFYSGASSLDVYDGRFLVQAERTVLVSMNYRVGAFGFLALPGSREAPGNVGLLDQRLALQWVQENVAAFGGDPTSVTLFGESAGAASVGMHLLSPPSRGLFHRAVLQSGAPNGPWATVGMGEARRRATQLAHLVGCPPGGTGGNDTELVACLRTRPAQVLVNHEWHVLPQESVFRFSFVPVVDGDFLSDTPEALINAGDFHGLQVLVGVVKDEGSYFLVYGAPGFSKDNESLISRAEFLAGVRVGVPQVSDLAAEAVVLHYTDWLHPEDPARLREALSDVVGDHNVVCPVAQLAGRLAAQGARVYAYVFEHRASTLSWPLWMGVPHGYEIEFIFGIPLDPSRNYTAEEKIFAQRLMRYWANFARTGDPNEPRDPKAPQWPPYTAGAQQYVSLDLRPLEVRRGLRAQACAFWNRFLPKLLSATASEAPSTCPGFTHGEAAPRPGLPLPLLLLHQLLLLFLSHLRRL
T2 sequence (P22303 32-617 isoform P22303-2 limits assumed): as above
T1 sequence (P81908 whole entry): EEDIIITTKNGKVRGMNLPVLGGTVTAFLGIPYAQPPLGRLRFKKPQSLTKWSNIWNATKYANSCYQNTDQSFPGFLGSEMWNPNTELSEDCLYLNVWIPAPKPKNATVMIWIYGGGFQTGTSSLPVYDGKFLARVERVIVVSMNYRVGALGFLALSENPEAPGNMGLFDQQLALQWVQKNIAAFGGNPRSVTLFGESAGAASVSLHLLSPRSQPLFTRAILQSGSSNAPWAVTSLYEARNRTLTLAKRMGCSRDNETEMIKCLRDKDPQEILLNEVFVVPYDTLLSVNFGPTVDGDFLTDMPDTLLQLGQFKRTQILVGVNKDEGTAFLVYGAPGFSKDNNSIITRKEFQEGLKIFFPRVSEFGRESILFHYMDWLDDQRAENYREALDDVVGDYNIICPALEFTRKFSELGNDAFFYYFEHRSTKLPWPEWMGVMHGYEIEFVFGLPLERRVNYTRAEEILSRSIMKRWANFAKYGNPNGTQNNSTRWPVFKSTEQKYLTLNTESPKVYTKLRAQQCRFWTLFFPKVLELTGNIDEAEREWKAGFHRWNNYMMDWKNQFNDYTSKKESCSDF

| Structure (SMILES) | Type of BChE inhibition (eqBChE; Lineweaver–Burk analysis) | αKi (non-competitive inhibition constant), eqBChE (eqBChE) [µM] | Ki (eqBChE) [nM] | IC50 (human erythrocyte AChE) [nM] | IC50 at 24 h (in vitro) [nM] | Type of AChE inhibition (AChE; Lineweaver–Burk analysis) | αKi (non-competitive inhibition constant), AChE (AChE) [µM] | Ki (AChE) [nM] | FRAP, TE (FRAP assay) | Shift of Absorbance, Zn(II) [1] [nm] | Shift of Absorbance, Cu(II) [2] [nm] | Shift of Absorbance, Fe(II) ([3]; absorption band at 237 nm) [nm] | Shift of Absorbance, Fe(II) [3, 6] [nm] | Shift of Absorbance, Zn(II) ([4]; absorption band at 237 nm) [nm] | Shift of Absorbance, Zn(II) [4, 6] [nm] | Shift of Absorbance, Cu(II) ([5]; absorption band at 237 nm) [nm] | Shift of Absorbance, Cu(II) [5, 6] [nm] |
| --- | --- | --- | --- | --- | --- | --- | --- | --- | --- | --- | --- | --- | --- | --- | --- | --- | --- |
| Oc1ccccc1/C=N/CCCCCCCCNc1c2c(nc3ccccc13)CCCC2 [10c] | mixed type of inhibition | 0.0152 ± 0.0009 | 8.4 ± 0.6 | 82.6 ± 4.6 | 5870 ± 140 | mixed type of inhibition | 0.0644 ± 0.0040 | 29.9 ± 2.1 | – | – | – | – | – | – | – | – | – |
| O=C(NCCCCCCNc1c2c(nc3ccccc13)CCCC2)c1cc(F)c(F)cc1O [7b] | – | – | – | 249 ± 17 | 15160 ± 90 | – | – | – | 0.03 | 352 | 253 | – | – | – | – | – | – |
| O=C(NCCCCCCNc1c2c(nc3ccccc13)CCCC2)c1ccccc1O [5b] | – | – | – | 294 ± 8 | 4890 ± 80 | – | – | – | – | – | – | 254 | 351 | 254 | 351 | 254 | 352 |
| O=C(NCCCCCCCCNc1c2c(nc3ccccc13)CCCC2)c1cc(F)c(F)cc1O [7c] | – | 0.0243 ± 0.0001 | 17.3 ± 0.6 | 188 ± 15 | – | – | 0.134 ± 0.009 | 125 ± 3 | 0.06 | – | – | – | – | – | – | – | – |
